From patent US6369057B1, “Quinoxalines, processes for their preparation and their use” (Aventis Pharma Deutschland GmbH, priority 1991, dated 2002)
pIC50: −log10 of the molar value.

Legend:
HIV = assay: Test of preparations against HIV in cell culture (T-cell culture assay); assay type: cell-based; details: lowest concentration where no giant cells were observed, HIV-infected lymphocytes from donor blood, 3 days at 37° C.
Method: Test of Preparations Against HIV in Cell Culture
Complete medium additionally contains 20% fetal calf serum and 40 IU/ml recombinant interleukin 2.
Lymphocytes which have been isolated from fresh donor blood by means of Ficoll gradient centrifugation are cultured for 36 hours in complete medium with an addition of 2 μg/ml phytohemagglutinin (Wellcome) at 37° C. under 5% of CO2. After 10% of DMSO has been added, the cells are frozen at a density of 5 [formula]10^6 and stored in liquid nitrogen. For the test, the cells are defrosted, washed in RPMI medium and cultured for 3-4 days in the complete medium.
The test preparations were dissolved in DMSO at a concentration of 16.7 mg/ml and diluted in complete medium to 1 mg/ml.
0.4 ml of medium was introduced into 24-multiwell dishes. 0.1 ml of the dissolved preparation was added to the upper row of the dish, and, by transferring 0.1 ml portions, a geometric dilution series was established. Controls without preparation always contained 0.4 ml of complete medium containing 0.5% of DMSO. Lymphocyte cultures with a cell density of 5 [formula]10^5 cells/ml were infected by adding 1/50 volume supernatant from HIV-infected lymphocyte cultures. The titer of these culture supernatants was determined by end-point titration as 1-5 [formula]10^6 infectious units/ml. After 30 minutes' incubation at 37° C., the infected lymphocytes were removed by centrifugation and taken up in an equal volume of medium. From this cell suspension, 0.6 ml aliquots were transferred into all wells of the test plate. The mixtures were incubated for 3 days at 37° C.
The infected cell cultures were examined under the microscope for the presence of giant cells, which indicate active virus multiplication in the culture. The lowest concentration of preparation where no giant cells were observed was determined as inhibitory concentration against HIV. As a control, the supernatants from the culture plates were tested for the presence of HIV antigen with the aid of an HIV antigen test following the manufacturer's instructions (Organon).

[1] = target: T1, HIV reverse transcriptase (RT) (Human immunodeficiency virus type 1 group M subtype B, UniProt P03366); assay: Assay for HIV reverse transcriptase inhibition (scintillation proximity assay); assay type: biochemical; details: for Reverse Transcriptase Assay IC50: RT from HIV cloned in E. coli, SPA, 60 minutes (37° C.)
T1 construct: The enzyme RT (from HIV cloned in E. coli); purchased HT-Biotechnology Ltd, Cambridge, UK; host or cells: E. coli
Method: Assay of the Substances for HIV Reverse Transcriptase Inhibition
The activity of reverse transcriptase (RT) was determined with the aid of a scintillation proximity assay (SPA).
The reagent kit for the RT-SPA was obtained from Amersham/Buchler (Braunschweig).
The enzyme RT (from HIV cloned in E. coli) originated from HT-Biotechnology Ltd, Cambridge, UK.
The assay was carried out using the manufacturer's (Amersham) protocol manual, with the following modifications: bovine serum albumin was added to the assay buffer to give an end concentration of 0.5 mg/ml the assay was carried out in Eppendorf reaction vessels, using 100 μl volume per batch the manufacturer's RT concentrate (5000 U/ml) was diluted in Tris-HCl buffer 20 mM; pH 7.2; 30% of glycerol, to an activity of 15 U per ml the incubation time for the mixtures was 60 minutes (37° C.) after stopping the reaction and “developing” with the bead suspension, 130 μl of mixture were transferred to 4.5 ml of Tris-HCl buffer, 10 mM; pH 7.4; 0.15 M NaCl, and the tritium activity was measured by means of a [formula]-counter.
For a pre-assay for inhibitory activity, the substances were dissolved in DMSO (stock solution c=1 mg/ml), and tested as a 10^−1, 10^−2, 10^−3, etc., dilution in DMSO.
To determine IC50 values, the inhibitor stock solutions were diluted further in Tris-HCl buffer, 50 mM, pH 8, and tested in suitable concentrations.
The concentration corresponding to a 50% enzyme inhibition was determined from a plot of RT activity versus log Clnh.

Compound | MIC (HIV; Human immunodeficiency virus 1, 72 h) | pIC50 [1] | T-cell culture assay MIC (HIV) | Reverse Transcriptase Assay IC50 [1]
CC(C)=CCN1c2ccccc2NC(=S)C1C (racemic) [Example 7-1, (3RS)-3-Methyl-4-N-(3-methyl-2-buten-1-yl)-3,4-dihydroquinoxaline-2(1H)-thione] | < 0.16 µg/mL | 6.49 |  | 
CC(C)=CCN1c2cc(Cl)ccc2NC(=O)C1C (racemic) [VI-C, (3RS)-6-Chloro-3-methyl-4-N-(3-methyl-2-buten-1-yI)-3,4-dihydroquinoxalin-2(1H)-one] |  |  | <0.8 µg/mL | 0.8 µg/mL
C=CCOC(=O)N1c2cc(Cl)ccc2NC(=O)C1C (stereo not shown) [Example 3-7] |  |  | 0.08 µg/mL | 0.08 µg/mL
CCOC(=O)N1c2cc(Cl)ccc2NC(=O)C1C (stereo not shown) [Example 3-23] |  |  | 0.08 µg/mL | 0.1 to 1 µg/mL
CCCOC(=O)N1c2cc(Cl)ccc2NC(=O)C1C (stereo not shown) [Example 3-24] |  |  | 0.08 µg/mL | 0.1 to 1 µg/mL
CCCCOC(=O)N1c2cc(Cl)ccc2NC(=O)C1C (stereo not shown) [Example 3-25] |  |  | 0.4 µg/mL | 0.1 to 1 µg/mL
CCC1C(=O)Nc2ccc(Cl)cc2N1CC=C(C)C (stereo not shown) [Example 3-29] |  |  | <0.4 µg/mL | 0.1 to 1 µg/mL
C=C(C)OC(=O)N1c2cc(Cl)ccc2NC(=O)C1CC (stereo not shown) [Example 3-30] |  |  | <0.01 µg/mL | 0.025 µg/mL
C=CCOC(=O)N1c2cc(Cl)ccc2NC(=O)C1CC (stereo not shown) [Example 3-32] |  |  | <0.4 µg/mL | approx. 0.1 μg/ml
C=C(C)OC(=O)N1c2cc(Cl)ccc2NC(=O)C1CC(C)C (stereo not shown) [Example 3-49] |  |  | <0.8 µg/mL | approx. 1 μg/ml
C=C(C)OC(=O)N1c2ccc(Cl)cc2NC(=O)C1C(C)C (stereo not shown) [Example 3-57] |  |  | <0.8 µg/mL | approx. 1 μg/ml
CSCC1C(=O)Nc2ccc(Cl)cc2N1CC=C(C)C (stereo not shown) [Example 3-75] |  |  | <0.8 µg/mL | 0.1 to 1 µg/mL
C=C(C)OC(=O)N1c2cc(Cl)ccc2NC(=O)C1CSC (stereo not shown) [Example 3-76] |  |  | <0.08 µg/mL | 0.018 µg/mL
C=C(C)OC(=O)N1c2cc(Cl)ccc2NC(=O)C1C(C)CC (stereo not shown) [Example 3-81] |  |  | 0.08 µg/mL | approx. 1 μg/ml
CC(C)=CCN1c2cc(Cl)ccc2NC(=O)C1(C)C [Example 6-1] |  |  | 0.4 µg/mL | approx. 1 μg/ml
CC(C)=CCN1c2cccc(C)c2NC(=O)C1(C)C [Example 6-16] |  |  | <0.8 µg/mL | approx. 1 μg/ml
C=C(C)OC(=O)N1c2cccc(C)c2NC(=O)C1(C)C [Example 6-17] |  |  | <0.8 µg/mL | 0.1 to 1 µg/mL
CC(C)=CCN1c2ccc(C)c(C)c2NC(=O)C1(C)C [Example 6-27] |  |  | <0.4 µg/mL | approx. 1 μg/ml
C=C(C)OC(=O)N1c2ccc(C)c(C)c2NC(=O)C1(C)C [Example 6-35] |  |  | <0.08 µg/mL | 0.1 to 1 µg/mL
CC(C)OC(=O)N1c2cc(Cl)ccc2NC(=O)C1(C)C [Example 6-50] |  |  | <0.01 µg/mL | 0.01 to 0.1 µg/mL

Compound | MIC (HIV; Human immunodeficiency virus 1, 72 h) | pIC50 [1] | T-cell culture assay MIC (HIV) | Reverse Transcriptase Assay IC50 [1]
CC(C)=CCN1c2cc(Cl)ccc2NC(=S)C1C (stereo not shown) [Example 7-2] |  |  | <0.01 µg/mL | 0.07 µg/mL
CC1C(=S)Nc2ccc(Cl)cc2N1Cc1ccccc1 (stereo not shown) [Example 7-3] |  |  | <0.01 µg/mL | 0.07 µg/mL
CC(C)=CCN1c2cc(Cl)ccc2NC(=S)C1(C)C [Example 7-7] |  |  | 0.04 µg/mL | 0.1 µg/mL
C=CCOC(=O)N1c2cc(Cl)ccc2NC(=S)C1C (stereo not shown) [Example 7-10] |  |  | <0.04 µg/mL | 0.11 µg/mL
C=C(C)OC(=O)N1c2cc(Cl)ccc2NC(=S)C1(C)C [Example 7-11] |  |  | <0.01 µg/mL | 0.01 µg/mL
C=C(C)OC(=O)N1c2ccc(Cl)cc2NC(=S)C1(C)C [Example 7-12] |  |  | <0.8 µg/mL | approx. 1 μg/ml
CC1(C)Nc2cc(Cl)ccc2NC1=S [Example 7-13] |  |  | <0.08 µg/mL | 0.1 to 1 µg/mL
C=C(C)OC(=O)N1c2cc(Cl)ccc2NC(=S)C1CC (stereo not shown) [Example 7-14] |  |  | <0.08 µg/mL | 0.01 to 0.1 µg/mL
CC(C)=CCN1c2cc(C)c(C)cc2NC(=S)C1(C)C [Example 7-16] |  |  | 0.4 µg/mL | approx. 1 μg/ml
C=CCOC(=O)N1c2cc(Cl)ccc2NC(=S)C1(C)C [Example 7-21] |  |  | <0.01 µg/mL | 0.01 to 0.1 µg/mL
CC(C)OC(=O)N1c2cc(Cl)ccc2NC(=S)C1(C)C [Example 7-22] |  |  | <0.01 µg/mL | 0.01 to 0.1 µg/mL
C=C(C)OC(=O)N1c2cc(Cl)ccc2NC(=S)C1CSC (stereo not shown) [Example 7-23] |  |  | <0.01 µg/mL | 0.01 to 0.1 µg/mL
C#CCN1c2cc(Cl)ccc2NC(=O)C1C (stereo not shown) [Example 10-9] |  |  | <0.8 µg/mL | approx. 1 μg/ml
CC1C(=O)Nc2ccc(Cl)cc2N1Cc1ccccn1 (stereo not shown) [Example 10-10] |  |  | 0.08 µg/mL | approx. 1 μg/ml
CC1C(=O)Nc2ccc(Cl)cc2N1Cc1ccco1 (stereo not shown) [Example 10-13] |  |  | 0.08 µg/mL | approx. 1 μg/ml
CC1C(=O)Nc2ccc(Cl)cc2N1Cc1cccc([N+](=O)[O-])c1 (stereo not shown) [Example 10-17] |  |  | 0.8 µg/mL | approx. 1 μg/ml
CC1C(=O)Nc2ccc(Cl)cc2N1Cc1ccccc1[N+](=O)[O-] (stereo not shown) [Example 10-18] |  |  | <0.8 µg/mL | 0.1 to 1 µg/mL
C=C(C)COC(=O)N1c2cc(Cl)ccc2NC(=O)C1C (stereo not shown) [Example 11-7] |  |  |  | approx. 1 μg/ml
CSCCOC(=O)N1c2cc(Cl)ccc2NC(=O)C1C (stereo not shown) [Example 11-13] |  |  |  | approx. 1 μg/ml
